Measured values as given in patent US20100160401A1, “4-PHENYLIMIDAZOLE-2-THIONE TYROSINASE INHIBITORS AND TREATMENT OR PREVENTION OF PIGMENTARY DISORDERS THEREWITH” (GALDERMA RESEARCH & DEVELOPMENT, BIOT, FRANCE, priority 2007, published 2010).

biological target: T1, tyrosinase (Mus musculus, UniProt P11344); assay: Tyrosinase activity inhibition assay (B16F1 cell lysate, L-tyrosine substrate, MBTH trapping, absorbance 520 nm); type: biochemical; conditions: lysate of B16F1 cells (murine melanoma line) as tyrosinase source, 37° C., reading at 520 nm after 6 hours, read-out: Tyrosine hydroxylase/Dopa oxidase IC50
T1 construct: the supernatant obtained constitutes the cell lysate used as tyrosinase source in the enzymatic assay; endogenous in cells; host or cells: B16F1 murine melanoma cells, cultured with alpha-MSH, lysed in 1% Igepal and sonicated; the supernatant was used
T1 sequence (P11344 19-533): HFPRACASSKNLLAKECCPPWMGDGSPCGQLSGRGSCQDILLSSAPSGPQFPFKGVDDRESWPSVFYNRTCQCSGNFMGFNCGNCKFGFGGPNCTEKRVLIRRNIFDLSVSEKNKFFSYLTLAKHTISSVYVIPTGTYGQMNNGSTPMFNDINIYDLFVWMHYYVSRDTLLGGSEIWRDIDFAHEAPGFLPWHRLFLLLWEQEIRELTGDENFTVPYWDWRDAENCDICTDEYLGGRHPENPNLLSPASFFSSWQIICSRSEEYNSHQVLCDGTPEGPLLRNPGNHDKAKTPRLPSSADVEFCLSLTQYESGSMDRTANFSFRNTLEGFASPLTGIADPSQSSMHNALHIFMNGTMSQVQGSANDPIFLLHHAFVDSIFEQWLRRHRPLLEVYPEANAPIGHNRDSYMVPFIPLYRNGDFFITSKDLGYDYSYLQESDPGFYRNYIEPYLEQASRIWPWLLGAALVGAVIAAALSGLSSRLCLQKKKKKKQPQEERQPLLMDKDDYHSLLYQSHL
Description: The activity of the inhibitors is measured starting from a lysate of B16F1 cells (murine melanoma line). In the presence of the L-tyrosine substrate, the tyrosinase present in these cells catalyses the hydroxylation of L-tyrosine to give L-DOPA and then the oxidation of the L-DOPA to give dopaquinone. In the presence of MBTH (3-methyl-2-benzothiazolinone hydrazone), the dopaquinone is trapped so as to form a pink complex which absorbs at 520 nm.
The B16F1 cells are cultured in DMEM medium+10% foetal calf serum+10^−9 M α-MSH for 4 days at 37° C. under 7% CO2. They are treated with trypsin, washed with PBS, counted and pelleted. The pellet is taken up at 10^7 cells/ml in lysis buffer (10 mM sodium phosphate, pH 6.8-1% Igepal) and the suspension is treated with ultrasound for 10 seconds. After centrifugation for 30 minutes at 4000 rpm, the supernatant obtained constitutes the cell lysate used as tyrosinase source in the enzymatic assay.
The assays are carried out in duplicate in 384-well plates in a total volume of 50 μl. Each well contains:
40 μl of solution containing 1.25 mM L-tyrosine, 6.25 μM L-DOPA (cofactor) and 3.75 mM MBTH in buffer B (62.25 mM sodium phosphate, pH 6.8-2.5% dimethylformamide),
5 μl of inhibitor diluted in DMSO,
5 μl of cell lysate diluted to ½ in 50 mM Tris HCl buffer, pH 7.5.
The plate is incubated at 37° C. and a spectrophotometric reading is carried out at 520 nm after incubating for 6 hours. To avoid any possible absorption of the products, the system uses corrected absorbance (absorbance at time 6 h absorbance at time zero).
The inhibitors are assayed in terms of dose-response so as to calculate an IC50 (dose which inhibits 50% of the enzymatic activity).
Several internal controls are added to each experiment:
control for 100% activity: the 5 μl of inhibitor are replaced with 5 μl of DMSO,
control for 50% activity: the 5 μl of inhibitor are replaced with 5 μl of phenylthiourea at 300 μM in DMSO,
control for 0% activity: the L-tyrosine substrate is replaced with buffer B.

Compound	IC50 [µM]
Sc1nc(-c2ccccc2)c[nH]1 [Compound 1, 4-phenyl-1,3-dihydroimidazole-2-thione]	0.25
S=c1[nH]cc(-c2cccc(Br)c2)[nH]1 [Compound 4, 4-(3-bromophenyl)-1,3-dihydroimidazole-2-thione]	3
Fc1ccc(-c2c[nH]c(=S)[nH]2)cc1 [Compound 8, 4-(4-fluorophenyl)-1,3-dihydroimidazole-2-thione]	0.3

Results, then the compound that gave them:

IC50 [µM]	Compound
0.9	COc1ccc(-c2c[nH]c(=S)[nH]2)cc1 [Compound 3, 4-(4-methoxyphenyl)-1,3-dihydroimidazole-2-thione]
0.6	Cc1ccc(-c2cnc(S)[nH]2)cc1 [Compound 13, 4-(4-methylphenyl)-1,3-dihydroimidazole-2-thione]
